Results on 17 molecules are retold here after patent publication US9353107B2 (Aurigene Discovery Technologies Limited, priority 2012, dated 2016).

This experiment deals with T1, recombinant human ALK enzyme (ALK WT) (Homo sapiens, UniProt Q9UM73).
T1 construct: purchased Carna Biosciences 08-518
As to the kind of experiment: ALK WT cell free enzymatic assay (TR-FRET). As to conditions: 1 μM ATP; for IC50: 10 point dose response; for inhibition at 0.1 µM: compound at 100 nM; for inhibition at 0.1 µM / inhibition at 1 µM: 30 min pre-incubation; for inhibition at 1 µM: compound at 1 μM. It counts as biochemical. Summed up:
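Recombinant human ALK with 40 nM Ultra Light Poly GT, 1 μM ATP and Eu anti-phosphotyrosine antibody, 1% DMSO, pH 7.1 HEPES; 30 min enzyme-compound pre-incubation, then 30 min reaction. TR-FRET 665/615 ratio; percent inhibition at 100 nM and 1 μM, IC50 from 10-point sigmoidal fit.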
(Time-resolved FRET reads energy transfer from a long-lived donor to a nearby acceptor.)

T1 sequence (Q9UM73 1058-1620 limits assumed): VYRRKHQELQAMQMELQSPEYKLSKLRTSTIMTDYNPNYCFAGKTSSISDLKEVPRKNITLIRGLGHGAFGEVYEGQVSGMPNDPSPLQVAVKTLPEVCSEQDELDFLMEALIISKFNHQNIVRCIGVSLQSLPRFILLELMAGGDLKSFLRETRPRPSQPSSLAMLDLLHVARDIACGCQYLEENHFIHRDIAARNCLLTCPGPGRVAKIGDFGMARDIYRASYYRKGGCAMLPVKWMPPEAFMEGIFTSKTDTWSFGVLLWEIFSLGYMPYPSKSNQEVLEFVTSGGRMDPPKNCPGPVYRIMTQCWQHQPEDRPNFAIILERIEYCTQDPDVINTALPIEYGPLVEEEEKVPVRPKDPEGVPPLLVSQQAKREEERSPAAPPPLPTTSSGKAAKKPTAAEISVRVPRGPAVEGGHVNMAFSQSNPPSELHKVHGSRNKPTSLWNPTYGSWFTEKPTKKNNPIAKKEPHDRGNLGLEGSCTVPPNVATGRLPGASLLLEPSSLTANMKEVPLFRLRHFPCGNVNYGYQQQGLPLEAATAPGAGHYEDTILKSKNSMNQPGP

For the molecule `O=C(CO)N1CCN(c2ccc(-c3cnc4[nH]cc(-c5cnn(Cc6cccc(F)c6)c5)c4c3)cn2)CC1` [Example 154, 1-(4-(5-(3-(1-(3-fluorobenzyl)-1H-pyrazol-4-yl)-1H-pyrrolo[2,3-b]pyridin-5-yl)pyridin-2-yl)piperazin-1-yl)-2-hydroxyethanone], the IC50 is less than 50 nM, the inhibition at 0.1 µM amounted to 99% and the inhibition at 1 µM was determined as 100%.
In the same order, the values of `OC1CCN(c2ccc(-c3cnc4[nH]cc(-c5cnn(Cc6cccc(F)c6)c5)c4c3)cn2)CC1` [Example 155, 1-(5-(3-(1-(3-fluorobenzyl)-1H-pyrazol-4-yl)-1H-pyrrolo[2,3-b]pyridin-5-yl)pyridin-2-yl)piperidin-4-ol] are less than 50 nM, 86% and 97%.
For `CCS(=O)(=O)N1CCN(c2ccc(-c3cnc4[nH]cc(-c5cnn(Cc6cccc(F)c6)c5)c4c3)cn2)CC1` [Example 156, 5-(6-(4-(ethylsulfonyl)piperazin-1-yl)pyridin-3-yl)-3-(1-(3-fluorobenzyl)-1H-pyrazol-4-yl)-1H-pyrrolo[2,3-b]pyridine], the IC50 is less than 50 nM, the inhibition at 0.1 µM was determined as 69% and the inhibition at 1 µM amounted to 91%.
For the molecule `O=C(C1CC1)N1CCN(c2ccc(-c3cnc4[nH]cc(-c5cnn(Cc6cccc(F)c6)c5)c4c3)cn2)CC1` [Example 157, Cyclopropyl(4-(5-(3-(1-(3-fluorobenzyl)-1H-pyrazol-4-yl)-1H-pyrrolo[2,3-b]pyridin-5-yl)pyridin-2-yl)piperazin-1-yl)methanone], the IC50 was less than 50 nM, the inhibition at 0.1 µM worked out at 77% and the inhibition at 1 µM came to 93%.
Take `CS(=O)(=O)N1CCN(c2ccc(-c3cnc4[nH]cc(-c5cnn(Cc6cccc(F)c6)c5)c4c3)cn2)CC1` [Example 158, 3-(1-(3-fluorobenzyl)-1H-pyrazol-4-yl)-5-(6-(4-(methylsulfonyl)piperazin-1-yl)pyridin-3-yl)-1H-pyrrolo[2,3-b]pyridine]: the half-inhibitory concentration (IC50) was less than 50 nM, the inhibition at 0.1 µM worked out at 85% and the inhibition at 1 µM is 94%.
For `Fc1cccc(Cn2cc(-c3c[nH]c4ncc(-c5ccc(C6CCNCC6)nc5)cc34)cn2)c1` [Example 159, 3-(1-(3-fluorobenzyl)-1H-pyrazol-4-yl)-5-(6-(piperidin-4-yl)pyridin-3-yl)-1H-pyrrolo[2,3-b]pyridine] the same measures were less than 50 nM, 91% and 100%.
In the same order, the values of `O=C(CC1CC1)N1CCN(c2ccc(-c3cnc4[nH]cc(-c5cnn(Cc6cccc(F)c6)c5)c4c3)cn2)CC1` [Example 160, 2-cyclopropyl-1-(4-(5-(3-(1-(3-fluorobenzyl)-1H-pyrazol-4-yl)-1H-pyrrolo[2,3-b]pyridin-5-yl)pyridin-2-yl)piperazin-1-yl)ethanone] are 50 to 250 nM, 20% and 84%.
For `Cc1nn(Cc2cccc(F)c2)c(C)c1-c1c[nH]c2ncc(-c3ccc(N4CCN(C[C@H](C)O)CC4)nc3)cc12` [Example 161, (2S)-1-(4-(5-(3-(1-(3-fluorobenzyl)-3,5-dimethyl-1H-pyrazol-4-yl)-1H-pyrrolo[2,3-b]pyridin-5-yl)pyridin-2-yl)piperazin-1-yl)propan-2-ol] the same measures were less than 50 nM, 86% and 97%.
As to `Cc1c(-c2c[nH]c3ncc(-c4ccc(N5CCN(C[C@H](C)O)CC5)nc4)cc23)cnn1Cc1cccc(F)c1` [Example 162, (S)-1-(4-(5-(3-(1-(3-fluorobenzyl)-5-methyl-1H-pyrazol-4-yl)-1H-pyrrolo[2,3-b]pyridin-5-yl)pyridin-2-yl)piperazin-1-yl)propan-2-ol], the IC50 was less than 50 nM, the inhibition at 0.1 µM came to 75% and the inhibition at 1 µM is 96%.
For `C[C@H](O)CN1CCN(c2cnc(-c3cnc4[nH]cc(-c5cnn(Cc6cccc(F)c6)c5)c4c3)cn2)CC1` [Example 163, (S)-1-(4-(5-(3-(1-(3-fluorobenzyl)-1H-pyrazol-4-yl)-1H-pyrrolo[2,3-b]pyridin-5-yl)pyrazin-2-yl)piperazin-1-yl)propan-2-ol] the same measures were less than 50 nM, 88% and 98%.
On to `C[C@H](O)CN1CCCN(c2ccc(-c3cnc4[nH]cc(-c5cnn(Cc6cccc(F)c6)c5)c4c3)cc2)CC1` [Example 164, (S)-1-(4-(4-(3-(1-(3-fluorobenzyl)-1H-pyrazol-4-yl)-1H-pyrrolo[2,3-b]pyridin-5-yl)phenyl)-1,4-diazepan-1-yl)propan-2-ol], for which the IC50 is less than 50 nM, the inhibition at 0.1 µM stood at 96% and the inhibition at 1 µM turned out to be 99%.
For `Cc1c(-c2c[nH]c3ncc(-c4ccc(C5CCNCC5)c(F)c4)cc23)cnn1Cc1cccc(F)c1` [Example 165, 5-(3-fluoro-4-(piperidin-4-yl)phenyl)-3-(1-(3-fluorobenzyl)-5-methyl-1H-pyrazol-4-yl)-1H-pyrrolo[2,3-b]pyridine] the same measures were less than 50 nM, 99% and 100%.
As for `Cc1nn(Cc2cccc(F)c2)cc1-c1c[nH]c2ncc(-c3ccc(C4CCNCC4)c(F)c3)cc12` [Example 166, 5-(3-fluoro-4-(piperidin-4-yl)phenyl)-3-(1-(3-fluorobenzyl)-3-methyl-1H-pyrazol-4-yl)-1H-pyrrolo[2,3-b]pyridine], the 50% inhibitory concentration (IC50) is less than 50 nM, the inhibition at 0.1 µM was 90% and the inhibition at 1 µM was 98%.
Turning to `Fc1cc(-c2cnc3[nH]cc(-c4cnn(CCc5ccccc5)c4)c3c2)ccc1C1CCNCC1` [Example 167, 5-(3-fluoro-4-(piperidin-4-yl)phenyl)-3-(1-phenethyl-1H-pyrazol-4-yl)-1H-pyrrolo[2,3-b]pyridine], the half-maximal inhibitory concentration (IC50) was 50 to 250 nM, the inhibition at 0.1 µM was 69% and the inhibition at 1 µM was 97%.
In the same order, the values of `Fc1cc(-c2cnc3[nH]cc(-c4ccn(CCc5ccccc5)n4)c3c2)ccc1C1CCNCC1` [Example 168, 5-(3-fluoro-4-(piperidin-4-yl)phenyl)-3-(1-phenethyl-1H-pyrazol-3-yl)-1H-pyrrolo[2,3-b]pyridine] are greater than 250 nM, 23% and 71%.
For `Fc1cc(F)cc(Cn2cc(-c3c[nH]c4ncc(-c5ccc(C6CCNCC6)c(F)c5)cc34)cn2)c1` [Example 169, 3-(1-(3,5-difluorobenzyl)-1H-pyrazol-4-yl)-5-(3-fluoro-4-(piperidin-4-yl)phenyl)-1H-pyrrolo[2,3-b]pyridine], the IC50 was less than 50 nM, the inhibition at 0.1 µM turned out to be 99% and the inhibition at 1 µM was 100%.
For `CN1CCC(c2ccc(-c3cnc4[nH]cc(-c5cnn(Cc6cccc(F)c6)c5)c4c3)cc2F)CC1` [Example 170, 5-(3-fluoro-4-(1-methylpiperidin-4-yl)phenyl)-3-(1-(3-fluorobenzyl)-1H-pyrazol-4-yl)-1H-pyrrolo[2,3-b]pyridine] the same measures were less than 50 nM, 98% and 100%.

For orientation: IC50 means the concentration that inhibits the measured activity by half. The inhibition is the change of the read-out against control, counted positive when it falls.
